Biological target: T1, PAR4 (Homo sapiens, UniProt Q96RI0)
T1 construct: expressed in transfected cells; host or cells: HEK293 PAR4 Clone 1.2A (BMS Arctic ID 383940)
T1 sequence (Q96RI0 18-385): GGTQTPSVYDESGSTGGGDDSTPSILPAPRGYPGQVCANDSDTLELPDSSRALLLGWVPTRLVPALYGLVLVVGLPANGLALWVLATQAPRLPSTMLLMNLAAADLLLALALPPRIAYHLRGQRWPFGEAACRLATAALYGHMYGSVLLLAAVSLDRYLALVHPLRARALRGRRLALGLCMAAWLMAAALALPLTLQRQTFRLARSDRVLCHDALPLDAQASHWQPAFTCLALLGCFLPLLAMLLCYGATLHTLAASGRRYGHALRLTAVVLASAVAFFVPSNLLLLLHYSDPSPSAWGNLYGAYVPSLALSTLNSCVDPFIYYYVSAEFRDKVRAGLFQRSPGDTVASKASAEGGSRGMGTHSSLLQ
Assay: PAR4 FLIPR assay (antagonism of agonist peptide-induced calcium mobilization)
Format: cell-based
In short: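 Antagonism was taken as block of calcium mobilization evoked by the agonist peptide H-Ala-Phe(4-F)-Pro-Gly-Trp-Leu-Val-Lys-Asn-[…]-NH2, added after 30 min room-temperature compound preincubation in dye-loaded PAR4-transfected HEK293 cells (endogenous PAR1). Fluorescence was read on FDSS, with compound addition alone used as the agonist counter-screen; values come from 11-point concentration-response curves.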

`COc1cnc2c(-c3cc4c5c(cc(C)c4o3)O[C@@H](COC(=O)Nc3ccnc(C)c3)CO5)cc(C)cc2n1` [Example 15, (R)-(8-(2-methoxy-7-methylquinoxalin-5-yl)-6-methyl-2,3-dihydro-[1,4]dioxino[2,3-e]benzofuran-3-yl)methyl (2-methylpyridin-4-yl)carbamate] was tested, and the IC50 was 3.2 nM.
With `COc1cnc2c(-c3nc4ccc5c(c4s3)OC[C@H](COC(=O)Nc3ccc(Br)nc3)O5)cc(C)cc2n1` [Example 109, (R)-(2-(2-methoxy-7-methylquinoxalin-5-yl)-7,8-dihydro-[1,4]dioxino[2′,3′:3,4]benzo[1,2-d]thiazol-7-yl)methyl (6-bromopyridin-3-yl)carbamate] the IC50 was 2.6 nM.
`COc1cnc2c(-c3nc4c(C)cc5c(c4s3)OCC(COC(=O)Nc3ccc(N)nc3)O5)cc(C)cc2n1` (stereo not drawn) [Example 141, (2-(2-methoxy-7-methylquinoxalin-5-yl)-4-methyl-7,8-dihydro-[1,4]dioxino[2′,3′:3,4]benzo[1,2-d]thiazol-7-yl)methyl (6-aminopyridin-3-yl)carbamate] showed an IC50 of 170 nM.
`COc1cnc2c(-c3nc4c(Cl)cc5c(c4s3)OC[C@H](COC(=O)Nc3cncc(Cl)c3)O5)cc(C)cc2n1` [Example 25, (R)-(4-chloro-2-(2-methoxy-7-methylquinoxalin-5-yl)-7,8-dihydro-[1,4]dioxino[2′,3′:3,4]benzo[1,2-d]thiazol-7-yl)methyl (5-chloropyridin-3-yl)carbamate] was tested, and the IC50 was 25 nM.
For `COc1cnc2c(-c3nc4ccc5c(c4s3)C[C@@H](CNC(=O)OCC(C)C)O5)cc(C)cc2n1` [Example 224, (S)-isobutyl ((2-(2-methoxy-7-methylquinoxalin-5-yl)-7,8-dihydrobenzofuro [5,4-d]thiazol-7-yl)methyl)carbamate], the IC50 was 4 nM.
With `COc1cnc2c(-c3nc4cc(F)c5c(c4s3)C[C@H](CNC(=O)OC(C)(C)C)O5)cc(C)cc2n1` [Example 223, (R)-tert-butyl ((5-fluoro-2-(2-methoxy-7-methylquinoxalin-5-yl)-7,8-dihydrobenzofuro[5,4-d]thiazol-7-yl)methyl)carbamate] the IC50 was 5.8 nM.
`COc1cnc2c(-c3nc4cc(F)c5c(c4s3)[C@@H](C)[C@H](COC(=O)Nc3cnc(OCCO)nc3)O5)cc(C)cc2n1` [Example 252, ((7R,8R)-5-fluoro-2-(2-methoxy-7-methylquinoxalin-5-yl)-8-methyl-7,8-dihydrobenzofuro[5,4-d]thiazol-7-yl)methyl (2-(2-hydroxyethoxy)pyrimidin-5-yl)carbamate] gave an IC50 of 88 nM.
For `COc1cnc2c(-c3nc4ccc5c(c4s3)OC[C@H](COC(=O)Nc3ccc4[nH]c(=O)oc4c3)O5)cc(C)cc2n1` [Example 106, (R)-(2-(2-methoxy-7-methylquinoxalin-5-yl)-7,8-dihydro-[1,4]dioxino[2′,3′:3,4]benzo [1,2-d]thiazol-7-yl)methyl (2-oxo-2,3-dihydrobenzo[d]oxazol-6-yl)carbamate], the IC50 was 2 nM.
For `COc1cnc2c(-c3nc4cc(F)c5c(c4s3)C[C@H](COC(=O)Nc3cncc(C(N)=O)c3)O5)cc(C)cc2n1` [Example 205, (R)-(5-fluoro-2-(2-methoxy-7-methylquinoxalin-5-yl)-7,8-dihydrobenzofuro[5,4-d]thiazo 1-7-yl)methyl (5-carbamoylpyridin-3-yl)carbamate], the IC50 was 1.3 nM.
`COc1ccc(NC(=O)OCC2COc3c(cc(C)c4nc(-c5cc(C(C)O)cc6nc(OC)cnc56)sc34)O2)cn1` (stereo not drawn) [Example 88, (2-(7-(1-hydroxyethyl)-2-methoxyquinoxalin-5-yl)-4-methyl-7,8-dihydro-[1,4]dioxino[2′,3′:3,4]benzo[1,2-d]thiazol-7-yl)methyl (6-methoxypyridin-3-yl)carbamate] showed an IC50 of 4.4 nM.
With `COc1cnc2c(-c3nc4c(Cl)cc5c(c4s3)CC(COC(=O)Nc3cccnc3)O5)cc(C)cc2n1` (stereo not drawn) [Example 18, (4-chloro-2-(2-methoxy-7-methylquinoxalin-5-yl)-7,8-dihydrobenzofuro[5,4-d]thiazol-7-yl)methyl pyridin-3-ylcarbamate] the IC50 was 5.7 nM.
In the case of `COc1cnc2c(-c3nc4c(C)cc5c(c4s3)OC[C@H](COC(=O)Nc3ccc4ncsc4c3)O5)cc(C)cc2n1` [Example 50, (R)-(2-(2-methoxy-7-methylquinoxalin-5-yl)-4-methyl-7,8-dihydro-[1,4]dioxino[2′,3′:3,4]benzo[1,2-d]thiazol-7-yl)methyl benzo[d]thiazol-6-ylcarbamate], the IC50 is reported as 140 nM.
Molecule `COc1cnc2c(-c3nc4c(C(O)C(C)(C)C)cc5c(c4s3)OCCO5)cc(C)cc2n1` (stereo not drawn) [Example 262, 1-(2-(2-methoxy-7-methylquinoxalin-5-yl)-7,8-dihydro-[1,4]dioxino[2′,3′:3,4]benzo[1,2-d]thiazol-4-yl)-2,2-dimethylpropan-1-ol] has an IC50 of 2.3 nM.
`COc1cnc2c(-c3nc4cc(F)c5c(c4s3)C[C@H](COC(=O)Nc3cccc(C(=O)N(C)C)c3)O5)cc(C)cc2n1` [Example 203, (R)-(5-fluoro-2-(2-methoxy-7-methylquinoxalin-5-yl)-7,8-dihydrobenzofuro[5,4-d]thiazo 1-7-yl)methyl (3-(dimethylcarbamoyl)phenyl)carbamate] showed an IC50 of 2.3 nM.
`COc1cnc2c(-c3nc4ccc5c(c4s3)OC[C@H](COC(=O)Nc3ccc(F)nc3)O5)cc(C)cc2n1` [Example 112, (R)-(2-(2-methoxy-7-methylquinoxalin-5-yl)-7,8-dihydro-[1,4]dioxino[2′,3′:3,4]benzo[1,2-d]thiazol-7-yl)methyl (6-fluoropyridin-3-yl)carbamate] showed an IC50 of 7.1 nM.
`COc1cnc2c(-c3nc4cc(F)c5c(c4s3)C[C@@](C)(COC(=O)Nc3cccc(C#N)c3)O5)cc(C)cc2n1` [Example 176, (S)-(5-fluoro-2-(2-methoxy-7-methylquinoxalin-5-yl)-7-methyl-7,8-dihydrobenzofuro[5,4-d]thiazol-7-yl)methyl (3-cyanophenyl)carbamate] was tested, and the IC50 was 6.1 nM.
With `COc1cnc2c(-c3nc4cc(F)c5c(c4s3)C[C@H](COC(=O)Nc3cccc(C(N)=O)c3)O5)cc(C)cc2n1` [Example 180, (R)-(5-fluoro-2-(2-methoxy-7-methylquinoxalin-5-yl)-7,8-dihydrobenzofuro[5,4-d]thiazol-7-yl)methyl (3-carbamoylphenyl)carbamate] the IC50 was 1.6 nM.
Work on `COc1ccc(NC(=O)OC[C@H]2COc3c(ccc4oc(-c5cc(C)cc6nc(OC)cnc56)cc34)O2)cn1` [Example 13, (R)-(8-(2-methoxy-7-methylquinoxalin-5-yl)-2,3-dihydro-[1,4]dioxino[2,3-e]benzofuran-3-yl)methyl (6-methoxypyridin-3-yl)carbamate] yielded an IC50 of 1.2 nM.
Molecule `COc1cnc2c(-c3nc4c(F)cc5c(c4s3)OC[C@H](COC(=O)Nc3ccnc(C)c3)O5)cc(C)cc2n1` [Example 75, (R)-(4-fluoro-2-(2-methoxy-7-methylquinoxalin-5-yl)-7,8-dihydro-[1,4]dioxino[2′,3′:3,4]benzo[1,2-d]thiazol-7-yl)methyl (2-methylpyridin-4-yl)carbamate] has an IC50 of 4.9 nM.
In the case of `CCOc1cnc2c(-c3nc4cc(F)c5c(c4s3)C[C@H](COC(=O)Nc3cnc(C)nc3)O5)cc(Cl)cc2c1` [Example 270, (R)-(2-(6-chloro-3-ethoxyquinolin-8-yl)-5-fluoro-7,8-dihydrobenzofuro[5,4-d]thiazol-7-y 1)methyl (2-methylpyrimidin-5-yl)carbamate], the IC50 is reported as 2.2 nM.
For `COc1cnc2c(-c3nc4c(Cl)cc5c(c4s3)OC[C@H](COC(=O)Nc3ccc(C)nc3)O5)cc(C)cc2n1` [Example 62], the IC50 was 1 nM.
Work on `COc1cnc2c(-c3nc4c(C)cc5c(c4s3)OCC(COC(=O)Nc3cncc(Cl)c3)O5)cc(C)cc2n1` (stereo not drawn) [Example 132, (2-(2-methoxy-7-methylquinoxalin-5-yl)-4-methyl-7,8-dihydro-[1,4]dioxino[2′,3′:3,4]benzo[1,2-d]thiazol-7-yl)methyl (5-chloropyridin-3-yl)carbamate] yielded an IC50 of 3.9 nM.
In the case of `COc1cnc2c(-c3nc4c(Cl)cc5c(c4s3)C[C@H](COC(=O)Nc3ccc(C)nc3)O5)cc(C)cc2n1` (single isomer, unassigned) [Example 20], the IC50 is reported as 3.2 nM.
`COc1cnc2c(-c3nc4cc(F)c5c(c4s3)C[C@H](COC(=O)Nc3ccc4c(c3)C(=O)NC4)O5)cc(C)cc2n1` [Example 178, (R)-(5-fluoro-2-(2-methoxy-7-methylquinoxalin-5-yl)-7,8-dihydrobenzofuro[5,4-d]thiazo 1-7-yl)methyl (3-oxoisoindolin-5-yl)carbamate] was tested, and the IC50 was 2.3 nM.
Molecule `COc1cnc2c(-c3nc4c(C)cc5c(c4s3)OCC(COC(=O)Nc3ccnc(O)c3)O5)cc(C)cc2n1` (stereo not drawn) [Example 3, (2-(2-methoxy-7-methylquinoxalin-5-yl)-4-methyl-7,8-dihydro-[1,4]dioxino[2′,3′:3,4]benzo[1,2-d]thiazol-7-yl)methyl (2-hydroxypyridin-4-yl)carbamate] has an IC50 of 12 nM.
With `COc1ccc(NC(=O)OC[C@H]2COc3c(cc(C)c4nc(-c5cc(CO)cc6nc(OC)cnc56)sc34)O2)cn1` [Example 98, (R)-(2-(7-(hydroxymethyl)-2-methoxyquinoxalin-5-yl)-4-methyl-7,8-dihydro-[1,4]dioxino[2′,3′:3,4]benzo[1,2-d]thiazol-7-yl)methyl (6-methoxypyridin-3-yl)carbamate] the IC50 was 1.4 nM.
`COc1cnc2c(-c3nc4cc(F)c5c(c4s3)C[C@@H](CNC(=O)Nc3ccccc3)O5)cc(C)cc2n1` [Example 248, (S)-1-((5-fluoro-2-(2-methoxy-7-methylquinoxalin-5-yl)-7,8-dihydrobenzofuro[5,4-d]thiazol-7-yl)methyl)-3-phenylurea] gave an IC50 of 7 nM.

— patent publication US11932658B2 (BRISTOL-MYERS SQUIBB COMPANY, priority 2016, dated 2024)
